The test system of test [1] is MC38 colon cancer. The test can be described thus: Vaccine prepared by three-step purification in treatment of MC38 colon cancer alone, compared with anti-PD-1 antibody (Example 3). The test is classed as in vivo, C57 BL/6J mice.
The subject of test [2] is MC38 colon cancer. The conditions noted are these: for Tumor cure rate: groups of 8; for Tumor inhibition rate: vs NS control group.
Procedure: (§1) The tumor graft inhibition rate and the tumor inhibition rate of the subcutaneous colon cancer in each group were calculated. The formula is as follows: [tumor inhibition rate=(mean tumor weight in control group −mean tumor weight in experimental group)/mean tumor weight in control group×100%]. [tumor cure rate=(number of mice without tumor/total number of mice)×100%].
Mice were weighed and randomly divided into groups of 8. MC38 colon cancer cells were diluted with an IMDM basal medium and inoculated in the right axilla of the C57BL/J mice according to 5×10^5 cells/mouse, with a total amount of 100 μL/mouse, for modeling. After the tumor diameter reached 5 mm, the mice were divided into 4 groups, namely a normal saline control group (NS group), an oxaliplatin injection group (oxaliplatin group), a recombinant MBP-MUC1-N fusion protein vaccine group (vaccine group), and an oxaliplatin in combination with recombinant MBP-MUC1-N fusion protein vaccine formulation group (combination group). On day 3, day 7, day 10, day 14, and day 17 of tumor bearing, the recombinant MBP-MUC1-N fusion protein vaccine formulation was intramuscularly injected at a dose of 100 pg/mouse (diluted with NS, with a total amount of 200 μL) for immunization, and oxaliplatin was intraperitoneally injected at a dose of 3 mg/kg (diluted with 12% DMSO).
Test [3] relates to MC38 colon cancer.
Procedure: Mice were weighed and randomly divided into groups of 6. MC38 colon cancer cells were diluted with an IMDM basal medium and inoculated in the right axilla of the C57BL/J mice according to 5×10^5 cells/mouse, with a total amount of 100 μL/mouse, for modeling. After the tumor diameter reached 5 mm, the mice were divided into 4 groups, namely a normal saline control group (NS group), an immune checkpoint inhibitor anti-PD-1 antibody injection group (PD-1 group), a recombinant MBP-MUC1-N fusion protein vaccine group (vaccine group), and a recombinant MBP-MUC1-N fusion protein vaccine formulation in combination with immune checkpoint inhibitor anti-PD1 antibody group (combination group). On day 3, day 7, day 10, day 14, and day 17 of tumor bearing, the recombinant MBP-MUC1-N fusion protein vaccine formulation was intramuscularly injected at a dose of 100 μg/mouse (diluted with NS, with a total amount of 200 μL) for immunization, and the immune checkpoint inhibitor anti-PD-1 antibody was intraperitoneally injected at a dose of 250 μg/mouse (diluted with NS, with a total amount of 500 tL/mouse).
as §1

Read-outs that look alike come from different tables or passages of the source.

Take “Vaccine group: recombinant fusion protein of maltose-binding protein MBP and human mucin MUC1-N in tandem (SEQ ID NO. 3), as vaccine”: the Tumor volume is 0.41+0.17 cm^3 with MC38 colon cancer [1] (3 days after injection), 1.11+0.83 cm^3 in the test with MC38 colon cancer [1] (7 days after injection) and 1.53+0.55 cm^3 with MC38 colon cancer [1] (10 days after injection). Further, the Tumor weight in the test with MC38 colon cancer [1] (MC38 tumor-bearing mice, vaccine 50 μg/mouse i.m., anti-PD-1 antibody 200 μg/mouse i.p., day 3, 7, 10, 14 of tumor bearing) was 1.53 ± 0.55 g; in the test with MC38 colon cancer [3] (MC38 tumor-bearing mice, vaccine 100 μg/mouse i.m., anti-PD-1 antibody 250 μg/mouse i.p., day 3, 7, 10, 14, 17 of tumor bearing), 1.96 ± 0.80 g. The Tumor cure rate was 40% in the test with MC38 colon cancer [1] (groups of 10); 0% with MC38 colon cancer [2]; 0% in the test on MC38 colon cancer [3] (number of mice without tumor/total number of mice, groups of 6). The Tumor inhibition rate in the test with MC38 colon cancer [1] (vs PBS control group) was 40%; in the test on MC38 colon cancer [2], 27%; in the test on MC38 colon cancer [3] (from mean tumor weight vs NS control group), 26%.

In the case of `O=C1[O][Pt]2([NH][C@@H]3CCCC[C@H]3[NH]2)[O]C1=O` [Oxaliplatin group, oxaliplatin], the Tumor volume in the test on MC38 colon cancer [2] (5 days after injection) is given as 0.46 ± 0.12 cm^3. Further, in the test with MC38 colon cancer [2] (7 days after injection), the Tumor volume came out at 0.81 ± 0.20 cm^3. The “Survival time of the mice suffering from the cancer” value with MC38 colon cancer [2] (MC38 tumor-bearing mice, FIG. 3) amounted to 29 days. In the test on MC38 colon cancer [2], this compound had a Tumor cure rate of 12.5% and a Tumor inhibition rate of 50%.

For the origin of these results see patent publication US20250025543A1, “DRUG FOR TREATING AND/OR PREVENTING CANCER AND USE THEREOF” (YUANBEN (ZHUHAI HENGQIN) BIOTECHNOLOGY CO., LTD., priority 2021, published 2025).
